# Legend:
# [1] = test system: M. hyorhinis ATCC 23234; assay: MIC against mycoplasma in vitro; assay type: cell-based; settings: Mesomycoplasma hyorhinis, ATCC23234, 144 h; M. hyorhinis ATCC 23234; 6 days, 37° C.; read-out: MIC
# [2] = test system: M. hyorhinis ATCC 25021; assay: MIC against mycoplasma in vitro; assay type: cell-based; settings: Mesomycoplasma hyorhinis, ATCC25021, 144 h; M. hyorhinis ATCC 25021; 6 days, 37° C.; read-out: MIC
# [3] = test system: Erysipelothrix rhusiopathiae NCTC 8163; assay: MIC against veterinary bacteria in vitro; settings: Erysipelothrix rhusiopathiae, NCTC8163, 18 h
# Protocol: (§1) The activity of the compounds of the Examples against various veterinarily important bacteria, was assayed in vitro using two-fold serial dilutions in Diagnostic Sensitivity Test Agar inoculated with 10^4 organisms.
# [4] = test system: Staph. aureus 152 (pen. sens); assay: MIC against veterinary bacteria in vitro; settings: Staphylococcus aureus, 18 h
# Protocol: as §1
# [5] = test system: M. suipneumoniae HK(2); assay: MIC against mycoplasma in vitro; assay type: cell-based; settings: Mesomycoplasma hyopneumoniae, 144 h; M. suipneumoniae HK(2); 6 days, 37° C.; read-out: MIC
# [6] = test system: S. dublin S7; assay: MIC against veterinary bacteria in vitro; settings: Salmonella enterica, S7, 18 h
# Protocol: as §1
# [7] = test system: M. suipneumoniae J2206/183^b; assay: MIC against mycoplasma in vitro; assay type: cell-based; settings: Mesomycoplasma hyopneumoniae, 144 h; M. suipneumoniae J2206/183^b; 6 days, 37° C.; read-out: MIC
# [8] = test system: S. typhimurium S18; assay: MIC against veterinary bacteria in vitro; settings: Salmonella enterica, TYPHIMURIUM, 18 h
# Protocol: as §1
# [9] = test system: M. bovis NCTC 10131; assay: microbe, parasite or virus in culture; assay type: cell-based; settings: NCTC10131, 144 h
# [10] = test system: M. suipneumoniae JF 435; assay: MIC against mycoplasma in vitro; assay type: cell-based; settings: Mesomycoplasma hyopneumoniae, JF435, 144 h
# [11] = test system: Past. multocida PA2; assay: MIC against veterinary bacteria in vitro; settings: Pasteurella multocida, PA2, 18 h
# Protocol: as §1
# [12] = test system: Strep. dysgalactiae SPD1; assay: MIC against veterinary bacteria in vitro; settings: Streptococcus dysgalactiae, SPD1, 18 h
# Protocol: as §1
# [13] = test system: M. bovigenitalium ATCC 14173; assay: MIC against mycoplasma in vitro; assay type: cell-based; settings: 144 h
# [14] = test system: M. hyosynoviae ATCC 25591; assay: MIC against mycoplasma in vitro; assay type: cell-based; settings: 144 h
# [15] = test system: M. dispar NCTC 10125; assay: MIC against mycoplasma in vitro; assay type: cell-based; settings: 144 h
# [16] = test system: M. suipneumoniae LABER; assay: MIC against mycoplasma in vitro; assay type: cell-based; settings: Mesomycoplasma hyopneumoniae, 144 h
# [17] = test system: Past. multocida PA1; assay: MIC against veterinary bacteria in vitro; settings: Pasteurella multocida, PA1, 18 h
# Protocol: as §1
# [18] = test system: Bord. bronchiseptica B08; assay: MIC against veterinary bacteria in vitro; settings: Bordetella bronchiseptica, B08, 18 h
# Protocol: as §1
# [19] = test system: M. suipneumoniae ATCC 25095; assay: MIC against mycoplasma in vitro; assay type: cell-based; settings: Mesomycoplasma hyopneumoniae, ATCC25095, 144 h
# [20] = test system: Strep. agalactiae SPA1; assay: MIC against veterinary bacteria in vitro; settings: Streptococcus agalactiae, SPA1, 18 h
# Protocol: as §1
# [21] = test system: M. suipneumoniae TAM 6N; assay: MIC against mycoplasma in vitro; assay type: cell-based; settings: Mesomycoplasma hyopneumoniae, TAM6N, 144 h; M. suipneumoniae TAM 6N; 6 days, 37° C.; read-out: MIC
# [22] = test system: Staph. aureus Oxford; assay: MIC against veterinary bacteria in vitro; settings: Staphylococcus aureus, 18 h
# Protocol: as §1
# [23] = test system: M. suipneumoniae Str. 11; assay: MIC against mycoplasma in vitro; assay type: cell-based; settings: Mesomycoplasma hyopneumoniae, STR.11, 144 h
# [24] = test system: M. suipneumoniae MS 16; assay: MIC against mycoplasma in vitro; assay type: cell-based; settings: Mesomycoplasma hyopneumoniae, MS16, 144 h
# [25] = test system: M. suipneumoniae NCTC 10110; assay: MIC against mycoplasma in vitro; assay type: cell-based; settings: Mesomycoplasma hyopneumoniae, NCTC10110, 144 h; M. suipneumoniae NCTC 10110; 6 days, 37° C.; read-out: MIC
# [26] = test system: M. suipneumoniae UCD 1; assay: MIC against mycoplasma in vitro; assay type: cell-based; settings: Mesomycoplasma hyopneumoniae, UCD1, 144 h
# [27] = test system: Staph. aureus B4 (pen. resistant); assay: MIC against veterinary bacteria in vitro; settings: Staphylococcus aureus, 18 h
# Protocol: as §1
# [28] = test system: M. gallisepticum S6; assay: MIC against mycoplasma in vitro; assay type: cell-based; settings: Mycoplasmoides gallisepticum, S6, 144 h
# [29] = test system: Strep. uberis SPU1; assay: MIC against veterinary bacteria in vitro; settings: Streptococcus uberis, SPU1, 18 h
# Protocol: as §1
# [30] = test system: B. subtilis ATCC 6633; assay: MIC against veterinary bacteria in vitro; settings: Bacillus subtilis, ATCC6633, 18 h
# Protocol: as §1
# [31] = test system: M. pneumoniae ATCC 15492; assay: MIC against mycoplasma in vitro; assay type: cell-based; settings: Mycoplasmoides pneumoniae, ATCC15492, 144 h; M. pneumoniae ATCC 15492; 6 days, 37° C.; read-out: MIC
# [32] = test system: E. coli E1; assay: MIC against veterinary bacteria in vitro; settings: Escherichia coli, E1, 18 h
# Protocol: as §1
# [33] = test system: Past. haemolytica PA5; assay: MIC against veterinary bacteria in vitro; settings: Mannheimia haemolytica, PA5, 18 h
# Protocol: as §1
# [34] = test system: Corynebacterium pyogenes CY1; assay: MIC against veterinary bacteria in vitro; settings: CY1, 18 h
# Protocol: as §1
# [35] = test system: E. coli NCTC 10418; assay: MIC against veterinary bacteria in vitro; settings: Escherichia coli, NCTC10418, 18 h
# Protocol: as §1
# [36] = test system: Bord. bronchiseptica B09; assay: MIC against veterinary bacteria in vitro; settings: Bordetella bronchiseptica, B09, 18 h
# Protocol: as §1
# [37] = test system: Strep. suis (group D) SPS11; assay: MIC against veterinary bacteria in vitro; settings: Streptococcus suis, 18 h
# Protocol: as §1
smiles,measurement,setting,value
"C/C(=C\c1ncc(-c2ccc(Br)s2)o1)C[C@@H]1OC[C@H](C[C@@H]2O[C@H]2[C@@H](C)[C@H](C)O)[C@@H](O)[C@H]1O [Example 28, 5-[2-(5-Bromo)-thienyl]-2-(1-normon-2-yl)oxazole A]",MIC,[1],0.5 µg/mL
same,MIC,[2],0.5 µg/mL
same,MIC,[3],40 µg/mL
same,MIC,[4],0.312 µg/mL
same,MIC,[5],0.5 µg/mL
same,MIC,[6],> 80 µg/mL
same,MIC,[7],0.5 µg/mL
same,MIC,[8],> 80 µg/mL
same,MIC,[9],0.05 µg/mL
same,MIC,[10],1 µg/mL
same,MIC,[11],2.5 µg/mL
same,MIC,[12],0.312 µg/mL
same,MIC,[13],0.1 µg/mL
same,MIC,[14],1 µg/mL
same,MIC,[15],0.1 µg/mL
same,MIC,[16],0.25 µg/mL
same,MIC,[17],20 µg/mL
same,MIC,[18],80 µg/mL
same,MIC,[19],0.25 µg/mL
same,MIC,[20],1.25 µg/mL
same,MIC,[21],0.5 µg/mL
same,MIC,[22],0.625 µg/mL
same,MIC,[23],0.25 µg/mL
same,MIC,[24],0.25 µg/mL
same,MIC,[25],0.5 µg/mL
same,MIC,[26],0.25 µg/mL
same,MIC,[27],0.156 µg/mL
same,MIC,[28],2.5 µg/mL
same,MIC,[29],< 0.039 µg/mL
same,MIC,[30],0.07 µg/mL
same,MIC,[31],5 µg/mL
same,MIC,[32],> 80 µg/mL
same,MIC,[33],80 µg/mL
same,MIC,[34],> 80 µg/mL
same,MIC,[35],> 80 µg/mL
same,MIC,[36],20 µg/mL
same,MIC,[37],10 µg/mL
